The test system of test [1] is STAT5 phosphorylation by GMCSF in TF-1 cells. The experiment in a line: JAK cellular assay: STAT5 phosphorylation by GMCSF in TF-1 cells (HTRF). It counts as cell-based. As to conditions: TF-1 cells, GMCSF 5 ng/ml, pSTAT5 HTRF, read-out: Cell Based Assay (μM) TF-1/GMCSF/pSTAT5. The protocol:
(§1) TF-1 cells were starved overnight in OptiMEM medium with 0.5% charcoal stripped fetal bovine serum, 0.1 mM nonessential amino acids (NEAA), 1 mM sodium pyruvate and without phenol red in CO2 incubator maintained at 37° c. Next day, cells were resuspended in RPMI without phenol red and dispensed into a 96 well plate at a final cell density of 1,20,000 cells per well. Compounds were diluted in DMSO and added to cells and incubated for 30 minutes in CO2 incubator maintained at 37° c. Final DMSO concentration in cell based assay was 0.2%. Human recombinant cytokines, IL-6 (30 ng/ml) and GMCSF (5 ng/ml) were added to the plate containing cells along with compound and incubated for 20 minutes with gentle tapping at every 5 minutes once. Compound mediated effects on STAT3 and STAT5 phosphorylation was measured in the lysates prepared by using CISBIO pSTAT3 and pSTAT5 detection kits by HTRF method. Background signal obtained from cells which were not activated with cytokines, was subtracted from vehicle controls and compound treated wells.
A general note: Time-resolved FRET reads energy transfer from a long-lived donor to a nearby acceptor.

The test system of test [2] is STAT3 phosphorylation by IL-6 in TF-1 cells. The experiment in a line: JAK cellular assay: STAT3 phosphorylation by IL-6 in TF-1 cells (HTRF). It is filed as cell-based. The following applies: IL-6 30 ng/ml, pSTAT3 HTRF, read-out: Cell Based Assay (μM) TF-1/IL-6/pSTAT3. The protocol:
as §1

Another test addresses T1, Recombinant JAK3 (Homo sapiens, UniProt P52333).
T1 construct: purchased Carna Biosciences
T1 sequence (P52333 1-1124): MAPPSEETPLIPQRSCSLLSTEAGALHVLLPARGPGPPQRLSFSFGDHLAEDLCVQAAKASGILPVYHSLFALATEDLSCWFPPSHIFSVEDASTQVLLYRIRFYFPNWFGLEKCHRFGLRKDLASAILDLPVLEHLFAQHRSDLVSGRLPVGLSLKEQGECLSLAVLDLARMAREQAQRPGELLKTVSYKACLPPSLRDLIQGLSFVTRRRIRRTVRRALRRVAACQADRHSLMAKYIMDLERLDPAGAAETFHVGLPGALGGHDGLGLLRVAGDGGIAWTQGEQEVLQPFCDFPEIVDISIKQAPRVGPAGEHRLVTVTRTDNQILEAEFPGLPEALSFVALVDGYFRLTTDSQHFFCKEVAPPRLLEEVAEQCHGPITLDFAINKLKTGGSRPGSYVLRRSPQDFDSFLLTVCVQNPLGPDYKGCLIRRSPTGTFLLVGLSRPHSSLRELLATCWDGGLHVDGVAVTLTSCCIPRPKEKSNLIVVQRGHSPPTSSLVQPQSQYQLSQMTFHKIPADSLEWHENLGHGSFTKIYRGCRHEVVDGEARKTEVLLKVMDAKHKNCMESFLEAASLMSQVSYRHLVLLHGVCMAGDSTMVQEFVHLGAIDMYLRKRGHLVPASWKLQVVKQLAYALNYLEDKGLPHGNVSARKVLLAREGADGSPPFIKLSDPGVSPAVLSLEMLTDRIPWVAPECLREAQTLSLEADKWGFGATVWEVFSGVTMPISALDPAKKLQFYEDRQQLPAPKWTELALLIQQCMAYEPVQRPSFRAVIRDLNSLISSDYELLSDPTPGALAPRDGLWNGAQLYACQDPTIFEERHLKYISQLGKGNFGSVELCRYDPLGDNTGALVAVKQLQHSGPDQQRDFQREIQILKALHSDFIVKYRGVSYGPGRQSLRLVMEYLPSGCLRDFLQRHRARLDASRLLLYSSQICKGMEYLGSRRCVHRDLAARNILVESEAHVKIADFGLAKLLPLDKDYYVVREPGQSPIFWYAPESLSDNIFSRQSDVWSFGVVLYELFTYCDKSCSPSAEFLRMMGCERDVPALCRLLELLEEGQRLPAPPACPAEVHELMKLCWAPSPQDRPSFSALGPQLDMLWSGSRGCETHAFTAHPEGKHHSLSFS
Briefly: JAK biochemical assay (LANCE Ultra TR-FRET), JAK3. The following applies: recombinant JAK3, TR-FRET; read-out: Biochemical Assay (μM) JAK3. In a few lines:
(§2)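 TR-FRET read-out of ULight substrate phosphorylation by recombinant kinase gives % inhibition relative to vehicle. The assay buffer is HEPES pH 7.5 with EGTA, MgCl2, DTT and Tween-20.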

A further test addresses T2, Recombinant TYK2 (Homo sapiens, UniProt P29597).
T2 construct: purchased Carna Biosciences
The experiment in a line: JAK biochemical assay (LANCE Ultra TR-FRET), TYK2. The following applies: recombinant TYK2, TR-FRET; read-out: Biochemical Assay (μM) TYK2. In a few lines: as §2

The next test has as its target T3, Recombinant JAK2 (Homo sapiens, UniProt O60674).
T3 construct: purchased Carna Biosciences
The experiment in a line: JAK biochemical assay (LANCE Ultra TR-FRET), JAK2. As to conditions: recombinant JAK2, TR-FRET; read-out: Biochemical Assay (μM) JAK2. The gist of the method:
as §2

For another test, the target named is T4, Recombinant JAK1 (Homo sapiens, UniProt P23458).
T4 construct: purchased Carna Biosciences
The experiment in a line: JAK biochemical assay (LANCE Ultra TR-FRET), JAK1. The following applies: recombinant JAK1, TR-FRET; read-out: Biochemical Assay (μM) JAK1. In a few lines:
as §2

Results on 14 compounds are retold here after US12516056B2, “Compounds for inhibition of janus kinase 1” (MANKIND PHARMA LTD., priority 2019, dated 2026).

Where two headings read alike, the source gives them in different places.

T3 sequence (O60674 whole entry): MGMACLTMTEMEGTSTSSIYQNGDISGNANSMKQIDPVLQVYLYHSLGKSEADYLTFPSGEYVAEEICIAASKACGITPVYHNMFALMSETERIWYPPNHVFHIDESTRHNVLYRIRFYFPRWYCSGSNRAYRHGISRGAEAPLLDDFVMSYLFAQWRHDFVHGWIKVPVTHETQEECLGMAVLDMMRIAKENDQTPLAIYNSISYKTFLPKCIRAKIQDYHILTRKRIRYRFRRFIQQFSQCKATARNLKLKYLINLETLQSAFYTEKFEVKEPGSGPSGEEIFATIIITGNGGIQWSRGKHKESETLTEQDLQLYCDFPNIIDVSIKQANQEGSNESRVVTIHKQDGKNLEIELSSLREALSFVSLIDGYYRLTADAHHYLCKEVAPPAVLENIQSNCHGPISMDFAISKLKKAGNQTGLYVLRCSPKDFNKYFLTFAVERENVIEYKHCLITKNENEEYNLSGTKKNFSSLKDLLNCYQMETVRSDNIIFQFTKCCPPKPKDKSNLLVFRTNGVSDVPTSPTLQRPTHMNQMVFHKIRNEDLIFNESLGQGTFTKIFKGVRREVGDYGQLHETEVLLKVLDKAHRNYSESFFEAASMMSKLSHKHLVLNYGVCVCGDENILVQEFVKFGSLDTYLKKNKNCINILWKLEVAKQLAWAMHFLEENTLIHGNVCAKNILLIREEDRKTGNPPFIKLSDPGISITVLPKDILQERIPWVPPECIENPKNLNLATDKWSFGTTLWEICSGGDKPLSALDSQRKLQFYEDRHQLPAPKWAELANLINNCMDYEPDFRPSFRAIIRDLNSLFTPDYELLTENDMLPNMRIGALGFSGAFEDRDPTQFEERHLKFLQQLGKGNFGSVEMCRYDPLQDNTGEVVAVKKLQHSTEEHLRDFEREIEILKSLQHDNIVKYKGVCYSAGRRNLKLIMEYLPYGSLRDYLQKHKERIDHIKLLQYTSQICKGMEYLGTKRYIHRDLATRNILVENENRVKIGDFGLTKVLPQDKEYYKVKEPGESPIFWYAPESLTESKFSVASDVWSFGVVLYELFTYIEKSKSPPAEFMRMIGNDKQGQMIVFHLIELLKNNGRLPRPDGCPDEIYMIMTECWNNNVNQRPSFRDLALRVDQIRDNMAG
T4 sequence (P23458 whole entry): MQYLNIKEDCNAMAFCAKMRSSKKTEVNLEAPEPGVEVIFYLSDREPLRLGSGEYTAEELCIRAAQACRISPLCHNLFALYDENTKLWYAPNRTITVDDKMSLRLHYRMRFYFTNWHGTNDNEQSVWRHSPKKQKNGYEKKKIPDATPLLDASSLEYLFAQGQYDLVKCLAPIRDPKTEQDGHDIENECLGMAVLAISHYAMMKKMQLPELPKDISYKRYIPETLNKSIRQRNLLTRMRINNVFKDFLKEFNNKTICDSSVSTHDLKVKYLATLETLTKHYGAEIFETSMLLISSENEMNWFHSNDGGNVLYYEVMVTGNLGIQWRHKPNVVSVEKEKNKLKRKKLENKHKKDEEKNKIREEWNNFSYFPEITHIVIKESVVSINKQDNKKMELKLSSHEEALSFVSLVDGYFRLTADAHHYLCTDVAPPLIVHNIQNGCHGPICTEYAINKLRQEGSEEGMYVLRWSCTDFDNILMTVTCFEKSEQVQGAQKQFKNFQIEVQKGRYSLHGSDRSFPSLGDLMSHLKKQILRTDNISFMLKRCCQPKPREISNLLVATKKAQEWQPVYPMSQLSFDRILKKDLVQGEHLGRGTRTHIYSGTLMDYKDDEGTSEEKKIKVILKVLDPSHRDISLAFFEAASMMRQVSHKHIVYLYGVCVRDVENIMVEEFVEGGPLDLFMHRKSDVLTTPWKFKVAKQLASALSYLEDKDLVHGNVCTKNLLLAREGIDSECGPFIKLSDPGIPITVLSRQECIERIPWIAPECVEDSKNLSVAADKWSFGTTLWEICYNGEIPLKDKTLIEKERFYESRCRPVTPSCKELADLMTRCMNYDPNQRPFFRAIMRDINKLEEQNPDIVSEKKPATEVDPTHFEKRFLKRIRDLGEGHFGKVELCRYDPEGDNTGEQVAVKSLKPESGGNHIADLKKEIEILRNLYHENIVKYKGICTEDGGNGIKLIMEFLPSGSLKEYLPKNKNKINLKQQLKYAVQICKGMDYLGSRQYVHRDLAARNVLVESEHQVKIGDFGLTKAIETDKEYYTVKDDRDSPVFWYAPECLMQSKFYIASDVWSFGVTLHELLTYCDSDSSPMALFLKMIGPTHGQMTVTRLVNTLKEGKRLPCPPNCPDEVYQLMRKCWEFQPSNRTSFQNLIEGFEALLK
T2 sequence (P29597 whole entry): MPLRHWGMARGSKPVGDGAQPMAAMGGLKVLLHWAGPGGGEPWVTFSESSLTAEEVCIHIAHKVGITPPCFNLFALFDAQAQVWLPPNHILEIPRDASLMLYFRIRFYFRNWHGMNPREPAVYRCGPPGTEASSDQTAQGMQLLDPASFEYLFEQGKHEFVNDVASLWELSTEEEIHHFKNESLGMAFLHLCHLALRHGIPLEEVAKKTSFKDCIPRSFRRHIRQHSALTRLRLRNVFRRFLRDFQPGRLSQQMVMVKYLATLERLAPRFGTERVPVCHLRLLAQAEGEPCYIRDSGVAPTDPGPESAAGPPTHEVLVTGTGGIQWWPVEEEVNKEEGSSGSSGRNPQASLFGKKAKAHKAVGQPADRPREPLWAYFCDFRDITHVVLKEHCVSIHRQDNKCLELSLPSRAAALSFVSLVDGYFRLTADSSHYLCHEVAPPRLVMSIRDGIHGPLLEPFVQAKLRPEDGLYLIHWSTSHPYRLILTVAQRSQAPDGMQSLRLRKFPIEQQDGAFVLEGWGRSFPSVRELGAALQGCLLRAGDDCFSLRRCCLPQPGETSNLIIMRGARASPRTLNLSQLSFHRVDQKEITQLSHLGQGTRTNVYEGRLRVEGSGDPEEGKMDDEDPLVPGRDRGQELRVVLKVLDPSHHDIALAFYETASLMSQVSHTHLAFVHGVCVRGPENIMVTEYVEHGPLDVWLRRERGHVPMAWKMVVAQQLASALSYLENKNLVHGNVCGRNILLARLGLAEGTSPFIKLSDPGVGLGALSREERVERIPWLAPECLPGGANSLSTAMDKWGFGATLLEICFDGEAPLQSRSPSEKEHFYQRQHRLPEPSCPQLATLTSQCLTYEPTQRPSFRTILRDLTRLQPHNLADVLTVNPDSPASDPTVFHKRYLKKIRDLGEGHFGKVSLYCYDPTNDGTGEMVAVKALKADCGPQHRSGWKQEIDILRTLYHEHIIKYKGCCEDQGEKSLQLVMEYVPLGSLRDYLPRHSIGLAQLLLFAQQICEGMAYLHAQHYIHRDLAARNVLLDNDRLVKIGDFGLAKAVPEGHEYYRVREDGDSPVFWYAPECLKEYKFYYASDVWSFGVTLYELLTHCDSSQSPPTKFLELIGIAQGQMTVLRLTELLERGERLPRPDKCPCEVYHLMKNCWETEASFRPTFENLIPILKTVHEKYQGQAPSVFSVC

As for `N#CC1CN(CCC(c2ccc(-n3cc(-c4ccnc5[nH]cnc45)cn3)nc2)C(F)(F)F)C1` (stereo not shown) [Example 1202, 1-(3-(6-(4-(3H-imidazo[4,5-b]pyridin-7-yl)-1H-pyrazol-1-yl)pyridin-3-yl)-4,4,4-trifluorobutyl)azetidine-3-carbonitrile], the IC50 was greater than 1 µM in test [1] (Homo sapiens); greater than 0.5 µM in test [2] (Homo sapiens, TF-1, TF-1 cells); less than 0.1 µM at Recombinant JAK3; greater than 0.5 µM on Recombinant TYK2; greater than 0.1 µM at Recombinant JAK2; less than 0.1 µM on Recombinant JAK1.

As for `OC(c1ccc(-n2cc(-c3ccnc4[nH]cnc34)cn2)nc1)(C1CCCCC1)C(F)(F)F` (stereo not shown) [Example 1130, 1-(6-(4-(3H-imidazo[4,5-b]pyridin-7-yl)-1H-pyrazol-1-yl)pyridin-3-yl)-1-cyclohexyl-2,2,2-trifluoroethanol], the IC50 was greater than 10 µM in test [1] (Homo sapiens); greater than 1 µM in test [2] (Homo sapiens, TF-1, TF-1 cells); greater than 0.1 µM on Recombinant JAK3; greater than 1 µM on Recombinant TYK2; greater than 0.1 µM on Recombinant JAK2; greater than 0.1 µM at Recombinant JAK1.

`N#CCC(c1ccc(-n2cc(-c3ccnc4[nH]cnc34)cn2)nc1)C(F)(F)F` (stereo not shown) [Example 1123, 3-(6-(4-(3H-imidazo[4,5-b]pyridin-7-yl)-1H-pyrazol-1-yl)pyridin-3-yl)-4,4,4-trifluorobutanenitrile]: the IC50 in test [1] (Homo sapiens) was 10 µM; in test [2] (Homo sapiens, TF-1, TF-1 cells) it was greater than 1 µM; on Recombinant JAK3, greater than 0.1 µM; on Recombinant TYK2 it was greater than 1 µM; at Recombinant JAK2, greater than 0.5 µM; on Recombinant JAK1, greater than 0.1 µM.

`CC(C#N)c1ccc(-n2cc(-c3ccnc4[nH]cnc34)cn2)nc1` (stereo not shown) [Example 1107, 2-(6-(4-(3H-imidazo[4,5-b]pyridin-7-yl)-1H-pyrazol-1-yl)pyridin-3-yl)propanenitrile]: the IC50 was greater than 10 µM in test [1] (Homo sapiens); greater than 1 µM in test [2] (Homo sapiens, TF-1, TF-1 cells); less than 0.1 µM on Recombinant JAK3; greater than 1 µM at Recombinant TYK2; greater than 0.1 µM on Recombinant JAK2; less than 0.1 µM at Recombinant JAK1.

For the compound `N#CC1(c2ccc(-n3cc(-c4ccnc5[nH]cnc45)cn3)nc2)CC1` [Example 1109, 1-(6-(4-(3H-imidazo[4,5-b]pyridin-7-yl)-1H-pyrazol-1-yl)pyridin-3-yl)cyclopropanecarbonitrile], the IC50 in test [1] (Homo sapiens) was greater than 10 µM; in test [2] (Homo sapiens, TF-1, TF-1 cells) it was greater than 1 µM; on Recombinant JAK3, less than 0.5 µM; at Recombinant TYK2, greater than 10 µM; on Recombinant JAK2 it was less than 0.5 µM; at Recombinant JAK1 it was less than 0.5 µM.

Take `N#CCC(C1CCCC1)n1cc(-c2ccnc3[nH]c(-c4ccccc4)nc23)cn1` (stereo not shown) [Example 1180, 3-cyclopentyl-3-(4-(2-phenyl-3H-imidazo[4,5-b]pyridin-7-yl)-1H-pyrazol-1-yl)propanenitrile]: the IC50 in test [1] (Homo sapiens) is greater than 1 µM; in test [2] (Homo sapiens, TF-1, TF-1 cells), greater than 1 µM; on Recombinant JAK3, less than 1 µM; at Recombinant TYK2, less than 1 µM; at Recombinant JAK2 it was less than 1 µM; at Recombinant JAK1, less than 1 µM.

As to `CC(C)N1CCC(C(O)(c2ccc(-n3cc(-c4ccnc5[nH]cnc45)cn3)nc2)C(F)(F)F)CC1` (stereo not shown) [Example 1240, 1-(6-(4-(3H-imidazo[4,5-b]pyridin-7-yl)-1H-pyrazol-1-yl)pyridin-3-yl)-2,2,2-trifluoro-1-(1-isopropylpiperidin-4-yl)ethanol], the IC50 in test [1] (Homo sapiens) was greater than 1 µM; in test [2] (Homo sapiens, TF-1, TF-1 cells), greater than 0.5 µM; at Recombinant JAK3, greater than 0.03 µM; at Recombinant TYK2, greater than 1 µM; at Recombinant JAK2, greater than 0.03 µM; on Recombinant JAK1 it was greater than 0.01 µM.

For `CC(C)[C@H](C#N)NC(=O)n1cc(-c2ccnc3[nH]c(=O)[nH]c23)cn1` [Example 1049, N-((R)-1-cyano-2-methylpropyl)-4-(2,3-dihydro-2-oxo-1H-imidazo[4,5-b]pyridin-7-yl)-1H-pyrazole-1-carboxamide], the IC50 was greater than 10 µM in test [1] (Homo sapiens); less than 10 µM in test [2] (Homo sapiens, TF-1, TF-1 cells); less than 0.5 µM at Recombinant JAK3; less than 0.5 µM at Recombinant TYK2; less than 0.5 µM on Recombinant JAK2; less than 0.5 µM on Recombinant JAK1.

On to `N#CCc1ccnc(-n2cc(-c3ccnc4[nH]cnc34)cn2)c1` [Example 1118, 2-(2-(4-(3H-imidazo[4,5-b]pyridin-7-yl)-1H-pyrazol-1-yl)pyridin-4-yl)acetonitrile], for which the IC50 in test [1] (Homo sapiens) was greater than 10 µM; in test [2] (Homo sapiens, TF-1, TF-1 cells) it was greater than 10 µM; at Recombinant JAK3 it was greater than 0.5 µM; at Recombinant TYK2 it was greater than 1 µM; on Recombinant JAK2, greater than 0.5 µM; on Recombinant JAK1, greater than 0.5 µM.

In the case of `N#CC1CN(C(=O)n2cc(-c3ccnc4[nH]c(=O)[nH]c34)cn2)C1` [Example 1048, 1-(4-(2-oxo-2,3-dihydro-1H-imidazo[4,5-b]pyridin-7-yl)-1H-pyrazole-1-carbonyl)azetidine-3-carbonitrile], the IC50 is greater than 10 µM in test [1] (Homo sapiens); greater than 10 µM in test [2] (Homo sapiens, TF-1, TF-1 cells); less than 0.5 µM at Recombinant JAK3; less than 0.5 µM at Recombinant TYK2; less than 0.5 µM on Recombinant JAK2; less than 0.5 µM at Recombinant JAK1.

Consider `N#CC(NC(=O)n1cc(-c2ccnc3[nH]cnc23)cn1)c1ccccc1` (stereo not shown) [Example 1070, N-(cyano(phenyl)methyl)-4-(3H-imidazo[4,5-b]pyridin-7-yl)-1H-pyrazole-1-carboxamide], for which the IC50 is greater than 10 µM in test [1] (Homo sapiens); greater than 10 µM in test [2] (Homo sapiens, TF-1, TF-1 cells); greater than 0.5 µM on Recombinant JAK3; greater than 0.5 µM at Recombinant TYK2; less than 0.5 µM on Recombinant JAK2; greater than 0.5 µM on Recombinant JAK1.

Consider `N#CC(c1ccc(-n2cc(-c3ccnc4[nH]cnc34)cn2)cc1)N1CCOCC1` (stereo not shown) [Example 1101, 2-(4-(4-(3H-imidazo[4,5-b]pyridin-7-yl)-1H-pyrazol-1-yl)phenyl)-2-morpholinoacetonitrile], for which the IC50 in test [1] (Homo sapiens) was greater than 10 µM; in test [2] (Homo sapiens, TF-1, TF-1 cells), greater than 10 µM; at Recombinant JAK3, greater than 1 µM; on Recombinant TYK2, greater than 10 µM; at Recombinant JAK2, greater than 0.5 µM; on Recombinant JAK1 it was greater than 0.5 µM.

As to `CC(CC#N)NC(=O)n1cc(-c2ccnc3[nH]c(=O)[nH]c23)cn1` (stereo not shown) [Example 1053, N-(1-cyanopropan-2-yl)-4-(2,3-dihydro-2-oxo-1H-imidazo[4,5-b]pyridin-7-yl)-1H-pyrazole-1-carboxamide], the IC50 in test [1] is greater than 10 µM; in test [2] (TF-1 cells) it was greater than 10 µM; at Recombinant TYK2, greater than 1 µM; on Recombinant JAK2, less than 1 µM; at Recombinant JAK1, less than 1 µM.

For the compound `CS(=O)(=O)CCC(C#N)NC(=O)n1cc(-c2ccnc3[nH]cnc23)cn1` (stereo not shown) [Example 1072, N-(1-cyano-3-(methylsulfonyl)propyl)-4-(3H-imidazo[4,5-b]pyridin-7-yl)-1H-pyrazole-1-carboxamide], the IC50 is greater than 10 µM in test [1] (Homo sapiens); greater than 10 µM in test [2] (Homo sapiens, TF-1, TF-1 cells); greater than 0.5 µM at Recombinant JAK3; greater than 0.5 µM on Recombinant JAK2; greater than 0.5 µM at Recombinant JAK1.
